According to article PMC3443097, “Evolution of Bombesin Conjugates for Targeted PET Imaging of Tumors” (PLoS ONE, 2012):
Square brackets hold non-standard residues; d marks the D form. Peptide text beside a SMILES is read from it. * marks the point of attachment. CPTA = 4-(1,4,8,11-tetraazacyclotetradec-1-yl)-methyl benzoic acid chelator, O=C(c1ccc(CN2CCCNCCNCCCNCC2)cc1)*; DOTA = O=C(O)CN1CCN(CC(=O)O)CCN(CC(=O)*)CCN(CC(=O)O)CC1; Nle = CCCC[C@H](N)C(=O)O; GABA = NCCCC(=O)O; βAla = NCCC(=O)O

What was measured:
human GRP receptor = target: T1, human GRP receptor (Homo sapiens, UniProt P30550); test: Competitive binding vs [^125I-Tyr^4] BN, autoradiography of human prostate cancer tissue sections; details: displacement of [^125I-Tyr^4] BN, ± SD, number of independent studies in brackets
T1 construct: in vitro autoradiography of sections of human prostate cancer tissue overexpressing GRP receptors; from tissue; host or cells: human prostate cancer tissue sections (patient samples, Institute of Pathology, University of Berne)
Protocol: (§1) Using [^125I-Tyr^4] BN as a GRP receptor preferring ligand, the IC50 values of the ^natCu/^natIn-labeled peptides were measured by in vitro autoradiography of sections of human prostate cancer tissue overexpressing GRP receptors or mouse pancreas tissue expressing mouse GRP receptors. The prostate cancer tissues originated from samples investigated previously or collected prospectively at the Institute of Pathology of the University of Berne in accordance with international ethical guidelines, including informed written consent and approval by the institutional review board. The binding affinity profile of [Cu^II]-BZH7 for three bombesin receptor subtypes was determined by using [^125I-D-Tyr^6, βAla^11, Phe^13, Nle^14] BN(6–14) as an universal radioligand. The procedures were described in detail previously.
(§2) Competitive binding assays were performed with human GRP receptor-positive cancerous tissue and mouse pancreas tissue (expressing mouse GRP receptor) using [^125I-Tyr^4]bombesin as radioligand. Table 2 summarizes the binding affinities of the metallopeptides to GRP receptors of mouse and human origin.

mouse GRP receptor = target: T2, mouse GRP receptor (Mus musculus, UniProt P21729); test: Competitive binding vs [^125I-Tyr^4] BN, autoradiography of mouse pancreas tissue sections; details: displacement of [^125I-Tyr^4] BN, ± SD, number of independent studies in brackets
T2 construct: mouse pancreas tissue (expressing mouse GRP receptor); from tissue; host or cells: mouse pancreas tissue sections
Protocol: as §1, §2

GRP-R [1] = target: T3, GRP-R (Homo sapiens, UniProt P30550); test: BN receptor subtype profile with universal radioligand [^125I-D-Tyr^6, βAla^11, Phe^13, Nle^14] BN(6–14), human cancerous tissues; details: human cancerous tissue, read-out: binding affinity to GRP-R
T3 construct: from tissue
Protocol: as §1
(§3) The most promising peptide, Cu-BZH7, was also studied with respect to BN receptor subtype profiles using human cancerous tissues shown to express predominantly a single bombesin receptor subtype.

BNRS-3 [2] = target: T4, BNRS-3 (Homo sapiens, UniProt P32247); test: as above; details: human cancerous tissue, read-out: binding affinity to BNRS-3
T4 construct: from tissue
T4 sequence (P32247 1-399): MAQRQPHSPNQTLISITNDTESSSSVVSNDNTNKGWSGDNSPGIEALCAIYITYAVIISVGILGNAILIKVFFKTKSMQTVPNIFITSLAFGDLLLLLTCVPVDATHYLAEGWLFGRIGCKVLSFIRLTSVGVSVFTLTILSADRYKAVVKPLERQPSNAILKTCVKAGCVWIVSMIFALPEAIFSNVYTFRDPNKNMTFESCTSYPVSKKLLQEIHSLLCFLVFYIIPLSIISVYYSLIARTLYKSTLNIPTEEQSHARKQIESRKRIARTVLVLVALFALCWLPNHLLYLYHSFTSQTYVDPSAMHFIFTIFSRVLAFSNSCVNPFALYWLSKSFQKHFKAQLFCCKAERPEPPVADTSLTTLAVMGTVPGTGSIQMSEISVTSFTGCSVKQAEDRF
Protocol: as §1, §3

NMB-R [3] = target: T5, NMB-R (Homo sapiens, UniProt P28336); test: as above; details: human cancerous tissue, read-out: binding affinity to NMB-R
T5 construct: from tissue
Protocol: as §1, §3

PC-3 cells = test: Composition of radioactivity externalized from PC-3 cells (metabolites); type: cell-based, human
Protocol: To identify the composition of the externalized peptides, [^111In]-BZH4 (^111In-DOTA-GABA-D-Tyr-Gln-Trp-Ala-Val-βAla-His-Leu-Nle-NH2) was used as a surrogate peptide with high specific activity, required for metabolic studies. Upon 2 h of internalization and acid wash, the externalized radioactivity after 2 h incubation already consisted of approximately 84% metabolites (^111In-DOTA: 14%; ^111In-DOTA-GABA-D-Tyr-Gln: main peak, 64%; ^111In-DOTA-GABA-D-Tyr-Gln-Trp-Ala-Val-βAla: 6%) and 16% intact peptide.

BNRS-3 [4] = details: read-out: affinity to BNRS-3; cited from earlier work
GRP-R [5] = details: read-out: affinity to GRP-R; cited from earlier work
NMB-R [6] = details: read-out: affinity to NMB-R; cited from earlier work
[7] = 2 h internalization, acid wash, 2 h incubation

T1 sequence (P30550 whole entry): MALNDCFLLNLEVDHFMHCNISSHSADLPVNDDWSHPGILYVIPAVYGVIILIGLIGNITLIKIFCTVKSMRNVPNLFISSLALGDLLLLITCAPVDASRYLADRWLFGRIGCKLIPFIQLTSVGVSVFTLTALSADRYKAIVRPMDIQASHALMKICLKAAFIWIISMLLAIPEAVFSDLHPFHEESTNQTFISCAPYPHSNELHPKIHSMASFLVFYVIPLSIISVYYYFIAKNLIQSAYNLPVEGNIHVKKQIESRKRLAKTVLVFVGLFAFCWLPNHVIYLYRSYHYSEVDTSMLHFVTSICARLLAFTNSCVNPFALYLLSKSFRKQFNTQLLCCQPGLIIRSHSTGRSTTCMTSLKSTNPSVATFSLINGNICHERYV
T2 sequence (P21729 whole entry): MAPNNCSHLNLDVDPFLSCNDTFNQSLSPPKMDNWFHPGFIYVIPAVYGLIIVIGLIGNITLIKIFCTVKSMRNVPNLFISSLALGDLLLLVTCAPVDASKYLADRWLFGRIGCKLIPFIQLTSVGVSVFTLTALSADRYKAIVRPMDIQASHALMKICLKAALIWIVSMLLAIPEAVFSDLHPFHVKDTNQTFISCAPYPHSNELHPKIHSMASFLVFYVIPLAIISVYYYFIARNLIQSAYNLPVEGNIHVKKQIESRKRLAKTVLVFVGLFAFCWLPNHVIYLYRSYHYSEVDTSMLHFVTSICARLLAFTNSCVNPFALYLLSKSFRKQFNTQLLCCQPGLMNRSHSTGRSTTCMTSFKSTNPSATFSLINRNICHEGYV
T3 sequence (P30550 whole entry): as the sequence (P30550 whole entry) above
T5 sequence (P28336 whole entry): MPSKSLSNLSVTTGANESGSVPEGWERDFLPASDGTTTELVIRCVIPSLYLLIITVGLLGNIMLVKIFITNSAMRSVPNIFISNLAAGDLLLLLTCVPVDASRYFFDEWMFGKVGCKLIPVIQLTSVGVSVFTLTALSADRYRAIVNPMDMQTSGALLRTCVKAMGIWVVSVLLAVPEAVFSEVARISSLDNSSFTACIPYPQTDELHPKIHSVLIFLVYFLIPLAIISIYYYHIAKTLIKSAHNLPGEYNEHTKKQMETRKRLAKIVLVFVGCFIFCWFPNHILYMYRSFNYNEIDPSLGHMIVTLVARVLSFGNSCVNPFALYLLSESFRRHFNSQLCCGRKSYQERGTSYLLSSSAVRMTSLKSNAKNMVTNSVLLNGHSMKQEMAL

CCCC[C@H](NC(=O)[C@H](CC(C)C)NC(=O)[C@H](Cc1c[nH]cn1)NC(=O)CCNC(=O)[C@@H](NC(=O)[C@H](C)NC(=O)[C@H](Cc1c[nH]c2ccccc12)NC(=O)[C@H](CCC(N)=O)NC(=O)[C@@H](Cc1ccc(O)cc1)NC(=O)CCCNC(=O)CN1CCN(CC(=O)O)CCN(CC(=O)O)CCN(CC(=O)O)CC1)C(C)C)C(N)=O [[Cu^II]-BZH4, Cu^II-DOTA-GABA-[D-Tyr^6, βAla^11, Nle^14] BN(6–14)] ({DOTA-GABA}-[dY]QWAV[βAla]HL[Nle]-NH2)
IC50 (human GRP receptor): 26.3 ± 3.5 nM | IC50 (mouse GRP receptor): 1.1 ± 0.3 nM

CSCC[C@H](NC(=O)[C@H](CC(C)C)NC(=O)[C@H](Cc1c[nH]cn1)NC(=O)CCNC(=O)[C@@H](NC(=O)[C@H](C)NC(=O)[C@H](Cc1c[nH]c2ccccc12)NC(=O)[C@H](CCC(N)=O)NC(=O)c1ccc(CN2CCCNCCNCCCNCC2)cc1)C(C)C)C(N)=O [[Cu^II]-BZH7, Cu^II-CPTA-[βAla^11] BN(7–14)]
IC50 (GRP-R [1]): 0.3 ± 0.07 nM | IC50 (BNRS-3 [2]): 1.4 ± 0.6 nM | IC50 (NMB-R [3]): 0.27 ± 0.16 nM

CCCC[C@H](NC(=O)[C@H](CC(C)C)NC(=O)[C@H](Cc1c[nH]cn1)NC(=O)CCNC(=O)[C@@H](NC(=O)[C@H](C)NC(=O)[C@H](Cc1c[nH]c2ccccc12)NC(=O)[C@H](CCC(N)=O)NC(=O)[C@@H](Cc1ccc(O)cc1)NC(=O)CCCNC(=O)CN1CCN(CC(=O)O)CCN(CC(=O)O)CCN(CC(=O)O)CC1)C(C)C)C(N)=O [[^111In]-BZH4, ^111In-DOTA-GABA-D-Tyr-Gln-Trp-Ala-Val-βAla-His-Leu-Nle-NH2, metal not drawn] ({DOTA-GABA}-[dY]QWAV[βAla]HL[Nle]-NH2)
externalized radioactivity: ^111In-DOTA (PC-3 cells): 14% | externalized radioactivity: metabolites (total) (PC-3 cells): approximately 84% | externalized radioactivity: ^111In-DOTA-GABA-D-Tyr-Gln (main peak) (PC-3 cells; [7]): 64% | externalized radioactivity: ^111In-DOTA-GABA-D-Tyr-Gln-Trp-Ala-Val-βAla (PC-3 cells; [7]): 6%

Cu^II-CPTA -[D-Tyr^6, βAla^11, Nle^14] BN(6–14) [[Cu^II]-BZH5]
IC50 (human GRP receptor): 3.2 ± 0.5 nM | IC50 (mouse GRP receptor): 0.6 ± 0.2 nM

Cu^II-CPTA-[D-Tyr^6, βAla^11] BN(6–14) ({CPTA}-[dY]QWAV[βAla]HLM-NH2; also: Cu(II) complex of CPTA) [[Cu^II]-BZH6]
IC50 (human GRP receptor): 1 ± 0.2 nM | IC50 (mouse GRP receptor): 0.8 ± 0.2 nM

Cu^II-CPTA-[Gly^6, βAla^11] BN(6–14) [[Cu^II]-BZH8]
IC50 (human GRP receptor): 1.8 ± 0.6 nM | IC50 (mouse GRP receptor): 0.8 ± 0.2 nM

DOTA-PEG4-BN(7–14) [[^natGa/^natLu]-DOTA-PESIN]
IC50 (BNRS-3 [4]): > 1000 nM | IC50 (GRP-R [5]): 10 nM | IC50 (NMB-R [6]): 12.5 nM

In^III-DOTA-GABA-[D-Tyr^6, βAla^11, Nle^14] BN(6–14) [[In^III]-BZH4]
IC50 (human GRP receptor): 41.5 ± 2.5 nM | IC50 (mouse GRP receptor): 0.8 ± 0.4 nM

[(N4-Bzdig)^0] BN (7–14)
IC50 (BNRS-3 [4]): 37 nM | IC50 (GRP-R [5]): 0.9 nM | IC50 (NMB-R [6]): 0.65 nM
